What was measured:
[1] = solubility in carrier solvent; type: physicochemical
Description: Experiments were carried out in 12-well flat-bottom polystyrene plates with 4-8 embryos per well in 1.0 ml of one-tenth strength MBS with 50 μg/ml gentamycin at 19° C. Staging of embryos was done according to the classification of Nieuwkoop and Faber. Embryos at stage 8.5-9 (late blastula stages prior to the debut of gastrulation at stage 10) or at the 2-cell stage (after the first cleavage division, Nieuwkoop and Faber stage 2), as indicated in the figures, were treated with a test compound or dimethylsulfoxide (DMSO) carrier solvent and maintained at 19° C. […] DMSO alone at this concentration had no detectable effect on the embryos. […] As with 0.1% DMSO, this concentration of DMF had no effect on development of the frog embryos. Each experiment was conducted in triplicate on at least three separate occasions for a total of 9 or more wells per treatment. Embryos were observed using a stereomicroscope and scored for defects or delayed development at set times (0, 3, 6, 9, 12, 24, 48, 72, and 96 hours) following treatment.

Xenopus laevis embryos = assay: frog embryo morphogenesis assay (scoring of developmental defects); type: in vivo; settings: Xenopus laevis; 72 hr after treatment; dose-response, 5 concentrations; read-out: EC50 with respect to the defective phenotype at 72 hr following treatment
Description: In order to identify compounds that specifically perturb morphogenesis in the frog embryo, a suitable method for scoring embryos by characteristic defects was developed. A useful starting point was the “dorso-anterior index” (DAI). The DAI originally was constructed by adding new morphological characteristics to the older “index of axis deficiency” (S. R. Scharf et al., Dev. Biol., 99, 75-87 (1983)). The DAI is a scale of dorsoanterior development wherein embryos are assigned a score based on degree of dorsoanterior phenotype (K. R. Kao et al., Dev. Biol., 127, 64-77 (1988)). The scale encompasses a score of 0 (for the most axis-deficient or ventralized embryos) to 10 (for embryos with the most enhanced dorsoanterior structures), with a score of 5 signifying a normal embryo.
Because the DAI focuses only on dorsoanterior phenotypes, other categories were added to describe possible defects more comprehensively, with an emphasis on characteristics that are easily and unambiguously recognized in intact embryos, and that are diagnostic of possible effects on morphogenesis during gastrulation and neurulation. The most useful and readily scored categories that covered the most frequent deficiencies were: reduced anterior structures and microcephaly, delayed appearance or absence of eye pigmentation, overall shortness along the anteroposterior axis, bent axis, bent tail only, reduced posterior structures/tail, malformed or reduced fins, delayed or failed neural tube closure (neural fold fusion), abnormal pigmentation pattern, ventral swelling (edema), and delayed or abnormal visceral organogenesis and yolk resorption. In addition, blastopore closure, an earlier process that marks the completion of gastrulation, was observed.
In these tests, test compounds were added individually to wells each containing 4-8 embryos in 12-well plates. Embryos at stage 8.5-9, according to the classification of Nieuwkoop and Faber (P. I. Nieuwkoop et al., Normal Table of Xenopus laevis (Daudin). Amsterdam: North-Holland Publ.) (1967)), were used because these are late blastula stages before gastrulation begins at stage 10, which allowed focusing primarily on compounds that affect morphogenetic events in gastrulation and neurulation. These embryos, therefore, have undergone a midblastula transition at stage 8 (cleavage division 12) when zygotic transcription begins (J. Newport et al., Cell, 30, 675-686 (1982); J. Newport et al., Cell, 30, 687-696 (1982)) but have not yet started the morphogenetic movements of gastrulation.
Standard procedures were used in the care of animals, gamete preparation, fertilization of oocytes, and culture of embryos (B. K. Kay et al., Methods in Cell Biology, Volumn 36 (San Diego: Academic Press, Inc.) (1991)). In order to stimulate ovulation, female frogs were injected with 500 units of human chorionic gonadotropin (HCG). Eggs were squeezed from female frogs 12 hours later. Testes were removed from euthanized male frogs that had been primed with 50 units of HCG 4-6 hours earlier. The testes were stored at 4° C. in single strength Marc's Modified Ringer's solution with 50 μg/ml gentamycin and used for no more than 10 days. Small pieces of testes were macerated and spread over eggs for in vitro fertilization in Petri dishes. Fertilized eggs were placed in one-tenth strength Modified Barth's Saline (MBS) with 50 μg/ml gentamycin at constant temperature (19° C.) in a temperature-controlled incubator and development allowed to proceed under these conditions. Embryos were dejellied by briefly swirling them in a solution of 2% (w/v) L-cysteine, pH 8.0. The embryos then were rinsed extensively with one-tenth strength MBS to wash out the cysteine. Experiments were started within an hour of dejellying the embryos.
Experiments were carried out in 12-well flat-bottom polystyrene plates with 4-8 embryos per well in 1.0 ml of one-tenth strength MBS with 50 μg/ml gentamycin at 19° C. […]

SMILES	solubility in DMF versus DMSO [1]	EC50 (Xenopus laevis embryos) [µM]
O=C(/C=C/c1c(F)c(F)c(F)c(F)c1F)N1C(=O)OC[C@@H]1Cc1ccccc1 [Compound 22]	more soluble in DMF	–
O=C(/C=C/c1ccc(O)cc1)N1C(=O)OC[C@@H]1Cc1ccccc1 [Compound 41]	more soluble in DMF	27.1

Source: patent publication US7390826B2, “Inhibitors of animal cell motility and growth” (The Board of Trustees of The University of Illinois, priority 2002, dated 2008)
